In US8273880B2, “Pyrazole compounds with inhibitory activity against ROS kinase” (Korea Institute of Science and Technology, priority 2009, dated 2012):
Entries after “also recorded” stand apart in the source; their conditions may differ. Where two headings read alike, the source gives them in different places.

What was measured:
45 different kinases = assay: Kinase selectivity from screening over 45 different kinases; type: biochemical
Experimental: (§1) Kinase screening was performed using a “HotSpot” assay platform commercially available from Reaction Biology Corporation. For this kinase screening, reaction buffers were based on 20 mM Hepes (pH 7.5), 10 mM MgCl2, 1 mM EGTA, 0.02% Brij35, 0.02 mg/mL BSA, 0.1 mM Na3VO4, 2 mM DTT, and 1% DMSO, with supplementary factors necessary for respective kinase reactions added thereto. In each enzyme reaction, […] of each kinase was used together with a fresh reaction buffer and appropriate supplementary factors. A solution of each compound in DMSO was added in a suitable concentration to the reaction buffer. Kinase reaction started with the introduction of […] (specific activity […]) and continued for 2 hours at room temperature.
1) Screening of Compounds Over 45 Different Kinases
Each compound was tested twice at a single dose concentration of 10 μM. […] The reaction was performed with 10 μM ATP.

ROS kinase [1] = molecular target: T1, ROS kinase (Homo sapiens, UniProt P08922); assay: ROS kinase screening (HotSpot, IC50 mode); type: biochemical; design: purchased Reaction Biology Corporation; conditions: 10-dose IC50 mode starting from 20 μM; 10 μM ATP; read-out: Inhibitory Activity against ROS (IC50)
Experimental: as §1
The reaction was performed with 10 μM ATP.

ROS kinase [2] = molecular target: T1, ROS kinase; design: literature Reaction Biology Corporation; conditions: Data from Reaction Biology corporation (website); read-out: Inhibitory Activity against ROS (IC50); cited from earlier work

T1 sequence (P08922 28-2347): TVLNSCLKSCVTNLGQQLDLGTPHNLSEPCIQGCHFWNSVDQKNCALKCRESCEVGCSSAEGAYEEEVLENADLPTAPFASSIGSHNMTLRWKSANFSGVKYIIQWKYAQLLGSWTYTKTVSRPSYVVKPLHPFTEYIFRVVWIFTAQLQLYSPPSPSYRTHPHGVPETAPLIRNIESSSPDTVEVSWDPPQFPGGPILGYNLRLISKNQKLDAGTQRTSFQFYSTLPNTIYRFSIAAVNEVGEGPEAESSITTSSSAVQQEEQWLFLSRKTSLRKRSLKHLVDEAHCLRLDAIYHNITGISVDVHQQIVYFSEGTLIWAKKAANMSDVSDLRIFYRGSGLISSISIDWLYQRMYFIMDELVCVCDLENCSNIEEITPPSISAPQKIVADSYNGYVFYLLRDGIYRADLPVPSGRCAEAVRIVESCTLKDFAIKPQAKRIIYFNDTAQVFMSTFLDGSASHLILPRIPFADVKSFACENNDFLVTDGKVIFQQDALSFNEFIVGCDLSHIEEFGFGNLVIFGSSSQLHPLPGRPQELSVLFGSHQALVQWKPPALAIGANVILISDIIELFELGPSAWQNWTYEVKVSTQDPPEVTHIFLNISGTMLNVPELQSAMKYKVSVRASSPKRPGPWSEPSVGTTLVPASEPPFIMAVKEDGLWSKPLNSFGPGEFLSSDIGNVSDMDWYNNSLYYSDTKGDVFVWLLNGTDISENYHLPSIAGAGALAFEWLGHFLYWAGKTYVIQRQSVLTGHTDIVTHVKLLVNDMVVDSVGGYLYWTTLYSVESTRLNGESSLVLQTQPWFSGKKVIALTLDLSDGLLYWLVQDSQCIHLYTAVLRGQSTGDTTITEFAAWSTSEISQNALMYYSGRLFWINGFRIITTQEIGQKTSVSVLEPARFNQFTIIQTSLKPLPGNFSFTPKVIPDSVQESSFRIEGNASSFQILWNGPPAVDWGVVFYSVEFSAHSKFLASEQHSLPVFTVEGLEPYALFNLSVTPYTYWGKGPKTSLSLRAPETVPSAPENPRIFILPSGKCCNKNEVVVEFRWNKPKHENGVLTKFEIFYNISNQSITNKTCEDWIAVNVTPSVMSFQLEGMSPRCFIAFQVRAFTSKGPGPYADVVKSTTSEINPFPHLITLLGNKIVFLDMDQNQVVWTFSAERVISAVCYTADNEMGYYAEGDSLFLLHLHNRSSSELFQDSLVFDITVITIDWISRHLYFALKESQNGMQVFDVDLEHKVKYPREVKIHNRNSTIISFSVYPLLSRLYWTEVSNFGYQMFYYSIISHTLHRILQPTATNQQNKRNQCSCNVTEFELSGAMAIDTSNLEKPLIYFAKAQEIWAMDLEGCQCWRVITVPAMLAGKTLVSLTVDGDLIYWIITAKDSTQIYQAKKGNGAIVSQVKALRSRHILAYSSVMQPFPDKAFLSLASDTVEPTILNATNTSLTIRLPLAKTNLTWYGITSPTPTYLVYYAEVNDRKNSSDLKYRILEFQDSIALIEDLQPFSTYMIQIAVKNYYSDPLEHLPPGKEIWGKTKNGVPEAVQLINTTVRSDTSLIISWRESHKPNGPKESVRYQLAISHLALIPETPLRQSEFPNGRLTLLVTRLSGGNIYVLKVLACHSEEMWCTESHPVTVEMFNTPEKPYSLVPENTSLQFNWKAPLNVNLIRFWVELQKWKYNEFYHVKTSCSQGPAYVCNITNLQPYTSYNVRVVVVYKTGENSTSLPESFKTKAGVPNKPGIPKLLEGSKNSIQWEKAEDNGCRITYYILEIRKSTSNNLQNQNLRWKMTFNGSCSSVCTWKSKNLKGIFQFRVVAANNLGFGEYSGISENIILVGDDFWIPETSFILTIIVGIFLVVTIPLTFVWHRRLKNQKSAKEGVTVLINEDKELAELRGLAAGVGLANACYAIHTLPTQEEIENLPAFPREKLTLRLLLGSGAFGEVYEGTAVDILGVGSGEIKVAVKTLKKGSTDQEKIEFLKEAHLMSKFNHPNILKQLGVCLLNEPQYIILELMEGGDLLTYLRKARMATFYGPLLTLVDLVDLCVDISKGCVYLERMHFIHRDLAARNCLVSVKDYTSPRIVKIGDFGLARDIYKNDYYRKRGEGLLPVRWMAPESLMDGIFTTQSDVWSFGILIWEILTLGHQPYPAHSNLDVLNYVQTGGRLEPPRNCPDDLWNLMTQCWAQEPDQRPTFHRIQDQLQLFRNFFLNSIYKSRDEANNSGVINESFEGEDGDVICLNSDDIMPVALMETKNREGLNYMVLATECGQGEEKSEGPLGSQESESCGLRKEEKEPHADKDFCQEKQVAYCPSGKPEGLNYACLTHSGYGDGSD

Question: With `Cc1cc(O)cc(-c2nn(CC#N)cc2-c2ccnc(-c3cccnc3)c2)c1` [Example 44, [3-(3-hydroxy-5-methylphenyl)-4-(2-(pyridin-3-yl)pyridin-4-yl)-pyrazol-1-yl]acetonitrile] as the compound, how does the “Notes (selectivity for ROS)” value (45 different kinases) read?
Answer: ROS selectivity; also recorded: Selective for ROS

Question: And the IC50 (ROS kinase [1])?
Answer: 0.209 µM

Question: For PDGFR I-III, which IC50 (ROS kinase [2]) is on record?
Answer: 48 µM
